Data published in the supplement of paper PMC4932681.
Where a name gives a salt, the structure may show the parent alone.

Experiments:
BT-474 Tam1 [1] = assay: drug sensitivity score (DSS) (DSS (dimensionless)); higher = more sensitive; extreme values may be limits of the assay; settings: 4-OH-tamoxifen in medium 1 µM; 72 h
Procedure, shortened: (§1)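 After seeding into 384-well plates with library drugs at five concentrations spanning a 10 000-fold range, breast cancer cell lines and their resistant derivatives were incubated 72 h at 37 °C. Resistant lines received medium with 1 μM of the selecting drug. CellTiter-Glo signal was read on a PHERAstar and scaled to vehicle-only and positive controls. Drug sensitivity score, relative IC50 (the curve midpoint) and top-dose inhibition came from logistic fits run in the Breeze pipeline.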

BT-474 Tam2 [2] = assay: as above; settings: 4-OH-tamoxifen in medium 1 µM; 72 h
Procedure, shortened: as §1

BT-474 [3] = assay: as above; settings: 72 h
Procedure, shortened: as §1

MCF-7 Tam1 [4] = assay: as above; settings: 4-OH-tamoxifen in medium 1 µM; 72 h
Procedure, shortened: as §1

MCF-7 [5] = assay: as above; settings: 72 h
Procedure, shortened: as §1

T-47D Tam1 [6] = assay: as above; settings: 4-OH-tamoxifen in medium 1 µM; 72 h
Procedure, shortened: as §1

T-47D Tam2 [7] = assay: as above; settings: 4-OH-tamoxifen in medium 1 µM; 72 h
Procedure, shortened: as §1

T-47D [8] = assay: as above; settings: 72 h
Procedure, shortened: as §1

ZR-75-1 Tam1 [9] = assay: as above; settings: 4-OH-tamoxifen in medium 1 µM; 72 h
Procedure, shortened: as §1

ZR-75-1 Tam2 [10] = assay: as above; settings: 4-OH-tamoxifen in medium 1 µM; 72 h
Procedure, shortened: as §1

ZR-75-1 [11] = assay: as above; settings: 72 h
Procedure, shortened: as §1

BT-474 Tam1 [12] = assay: relative IC50 (midpoint of fitted logistic curve, plateau may be below 50% inhibition; CellTiter-Glo viability); higher = less potent; settings: 4-OH-tamoxifen in medium 1 µM; 72 h
Procedure, shortened: as §1

BT-474 Tam2 [13] = assay: as above; settings: 4-OH-tamoxifen in medium 1 µM; 72 h
Procedure, shortened: as §1

BT-474 [14] = assay: as above; settings: 72 h
Procedure, shortened: as §1

MCF-7 Tam1 [15] = assay: as above; settings: 4-OH-tamoxifen in medium 1 µM; 72 h
Procedure, shortened: as §1

MCF-7 [16] = assay: as above; settings: 72 h
Procedure, shortened: as §1

T-47D Tam1 [17] = assay: as above; settings: 4-OH-tamoxifen in medium 1 µM; 72 h
Procedure, shortened: as §1

T-47D Tam2 [18] = assay: as above; settings: 4-OH-tamoxifen in medium 1 µM; 72 h
Procedure, shortened: as §1

T-47D [19] = assay: as above; settings: 72 h
Procedure, shortened: as §1

ZR-75-1 Tam1 [20] = assay: as above; settings: 4-OH-tamoxifen in medium 1 µM; 72 h
Procedure, shortened: as §1

ZR-75-1 Tam2 [21] = assay: as above; settings: 4-OH-tamoxifen in medium 1 µM; 72 h
Procedure, shortened: as §1

ZR-75-1 [22] = assay: as above; settings: 72 h
Procedure, shortened: as §1

Row | SMILES | drug sensitivity score (BT-474 Tam1 [1]) | drug sensitivity score (BT-474 Tam2 [2]) | drug sensitivity score (BT-474 [3]; 4-OH-tamoxifen in medium 0 µM) | drug sensitivity score (BT-474 [3]; 4-OH-tamoxifen in medium 1 µM) | drug sensitivity score (MCF-7 Tam1 [4]) | drug sensitivity score (MCF-7 [5]; 4-OH-tamoxifen in medium 0 µM) | drug sensitivity score (MCF-7 [5]; 4-OH-tamoxifen in medium 1 µM) | drug sensitivity score (T-47D Tam1 [6]) | drug sensitivity score (T-47D Tam2 [7]) | drug sensitivity score (T-47D [8]; 4-OH-tamoxifen in medium 0 µM) | drug sensitivity score (T-47D [8]; 4-OH-tamoxifen in medium 1 µM) | drug sensitivity score (ZR-75-1 Tam1 [9]) | drug sensitivity score (ZR-75-1 Tam2 [10]) | drug sensitivity score (ZR-75-1 [11]; 4-OH-tamoxifen in medium 0 µM) | drug sensitivity score (ZR-75-1 [11]; 4-OH-tamoxifen in medium 1 µM) | relative IC50 (BT-474 Tam1 [12]) [nM] | relative IC50 (BT-474 Tam2 [13]) [nM] | relative IC50 (BT-474 [14]; 4-OH-tamoxifen in medium 1 µM) [nM] | relative IC50 (MCF-7 Tam1 [15]) [nM] | relative IC50 (MCF-7 [16]; 4-OH-tamoxifen in medium 0 µM) [nM] | relative IC50 (MCF-7 [16]; 4-OH-tamoxifen in medium 1 µM) [nM] | relative IC50 (T-47D Tam1 [17]) [nM] | relative IC50 (T-47D Tam2 [18]) [nM] | relative IC50 (T-47D [19]; 4-OH-tamoxifen in medium 0 µM) [nM] | relative IC50 (T-47D [19]; 4-OH-tamoxifen in medium 1 µM) [nM] | relative IC50 (ZR-75-1 Tam1 [20]) [nM] | relative IC50 (ZR-75-1 Tam2 [21]) [nM] | relative IC50 (ZR-75-1 [22]; 4-OH-tamoxifen in medium 0 µM) [nM] | relative IC50 (ZR-75-1 [22]; 4-OH-tamoxifen in medium 1 µM) [nM] | relative IC50 (BT-474 [14]; 4-OH-tamoxifen in medium 0 µM) [nM]
1 | CN1CC[C@H](c2c(O)cc(O)c3c(=O)cc(-c4ccccc4Cl)oc23)[C@H](O)C1 [Alvocidib (Flavopiridol)] | 19.8 | 16.9 | 1.69 | 14.1 | 4.64 | 13.6 | 9.86 | 16.8 | 7.73 | 7.14 | 0 | 7.64 | 10.1 | 10.4 | 9.96 | 217 | 363 | 388 | 316 | 187 | 515 | 174 | 184 | 408 | > 10000 | 477 | 355 | 251 | 246 | 
2 | Nc1ncn([C@H]2C[C@H](O)[C@@H](CO)O2)c(=O)n1 [Decitabine (Dacogen)] | 0 | 0 | 0 | 0 | 0 | 1.25 | 0 | 0 | 0 | 0 | 0 | 0 | 0 | 0 | 0 | > 10000 | > 10000 | > 10000 | > 10000 |  | > 10000 | > 10000 | > 10000 | > 10000 | > 10000 | > 10000 | > 10000 | > 10000 | > 10000 | > 10000
3 | COCC[n+]1c2c(n(Cc3cnccn3)c1C)C(=O)c1ccccc1C2=O [YM155] | 19.6 | 16.6 | 25.6 | 20.9 | 25.8 | 43 | 26.5 | 14.2 | 11.4 | 27.1 | 17.6 | 15.3 | 16.2 | 28.5 | 19 | 218 | 337 | 171 | 57 | 2.65 | 49.6 | 526 | 811 | 47.5 | 299 | 454 | 358 | 36.5 | 202 | 71.1
4 | CO[C@H]1/C=C\C=C(/C)C(=O)NC2=CC(=O)C(NCCN(C)C)=C(C[C@@H](C)C[C@H](OC)[C@H](O)[C@@H](C)/C=C(\C)[C@@H]1OC(N)=O)C2=O [Alvespimycin (17-DMAG)] | 16.9 | 17.6 | 12.2 | 19.4 | 4.36 | 12.6 | 8.71 | 1.14 | 3.87 | 3.17 | 3.41 | 3.49 | 5.93 | 3.36 | 6.21 | 15.3 | 14.6 | 8.88 | 48 | 22.5 | 30 | 424 | 196 | 259 | 142 | 95 | 71 | 85.8 | 75.2 | 13.1
5 | CC(C)C[C@H](NC(=O)[C@H](Cc1ccccc1)NC(=O)c1cnccn1)B(O)O [Bortezomib] | 29.5 | 26.7 | 13.2 | 29.1 | 11.3 | 19.9 | 14 | 30.4 | 26.5 | 25.6 | 23.7 | 13.9 | 16.4 | 9.65 | 10.7 | 3.55 | 5.98 | 3.72 | 39.9 | 6.82 | 44.5 | 2.79 | 5.5 | 6.27 | 8.31 | 20.1 | 8.96 | 73.1 | 31.4 | 12.7
6 | Nc1cccc2c1CN(C1CCC(=O)NC1=O)C2=O (stereo not drawn) [Lenalidomide] | 0 | 0 | 0 | 0 | 0 | 0 | 1.39 | 0 | 0 | 0 | 0 | 0 | 0 | 0 | 0 | > 10000 | > 10000 | > 10000 | > 10000 | > 10000 |  | > 10000 | > 10000 | > 10000 | > 10000 | > 10000 | > 10000 | > 10000 | > 10000 | > 10000
7 | C[C@@H]1C=C2C(=O)O[C@@H]3CC[C@H](C1)[C@]23O [Galiellalactone] | 2.19 | 0 | 0 | 2.65 | 0 | 6.75 | 0.391 | 3.53 | 2.32 | 2.52 | 1.56 | 0 | 0 | 0 | 0 | 19100 | > 50000 | 17300 | > 50000 | 7000 | > 50000 | 8360 | 13800 | 20000 | 30100 | > 50000 | > 50000 | > 50000 | > 50000 | > 50000
8 | CCc1c(C(=O)C(N)=O)c2c(OCC(=O)O)cccc2n1Cc1ccccc1 [Varespladib] | 0 | 0 | 0 | 0 | 0 | 0.0495 | 0 | 0 | 0 | 0 | 0 | 0 | 0 | 0 | 0 | > 10000 | > 10000 | > 10000 | > 10000 |  | > 10000 | > 10000 | > 10000 | > 10000 | > 10000 | > 10000 | > 10000 | > 10000 | > 10000 | > 10000
9 | CS(=O)(=O)N1CCN(Cc2cc3nc(-c4cccc5[nH]ncc45)nc(N4CCOCC4)c3s2)CC1 [Pictilisib (GDC-0941)] | 17.4 | 17.2 | 10.2 | 16.4 | 8.69 | 15.4 | 12.8 | 14.7 | 9.95 | 9.41 | 9.59 | 11.3 | 12.1 | 12.7 | 9.23 | 202 | 182 | 283 | 582 | 201 | 419 | 148 | 472 | 713 | 884 | 514 | 415 | 208 | 453 | 359
10 | N#CC[C@H](C1CCCC1)n1cc(-c2ncnc3[nH]ccc23)cn1 | 0 | 0 | 0 | 0 | 0 | 0 | 0 | 0 | 0 | 0 | 0 | 0 | 0 | 0 | 0 | > 10000 | > 10000 | > 10000 | > 10000 | > 10000 | > 10000 | > 10000 | > 10000 | > 10000 | > 10000 | > 10000 | > 10000 | > 10000 | > 10000 | > 10000
11 | CC(C)C[C@H](NC(=O)[C@H](CCc1ccccc1)NC(=O)CN1CCOCC1)C(=O)N[C@@H](Cc1ccccc1)C(=O)N[C@@H](CC(C)C)C(=O)[C@@]1(C)CO1 [Carfilzomib] | 27.9 | 20.8 | 14.6 | 28.9 | 12.4 | 17.9 | 21 | 22.7 | 17.1 | 23.1 | 25.8 | 12.8 | 11.8 | 14 | 16.4 | 4.59 | 15.3 | 3.67 | 74.6 | 19.7 | 15.8 | 11.4 | 33.4 | 8.82 | 2.82 | 47.1 | 51.9 | 31.7 | 24.7 | 25.6
12 | CC(C)(C)c1cnc(CSc2cnc(NC(=O)C3CCNCC3)s2)o1 [SNS-032] | 23.8 | 14.4 | 0.78 | 15.8 | 2.67 | 20 | 11.8 | 8.4 | 4.33 | 7.36 | 1.24 | 9.78 | 11.1 | 12.3 | 9.55 | 82.9 | 420 | 83.7 | 1200 | 38.2 | 134 | 362 | 600 | 451 |  | 308 | 297 | 243 | 315 | 
13 | c1ccc([C@H]2CN3CCSC3=N2)cc1 [Levamisole, (Tetramisole hydrochloride)] | 0 | 0 | 0 | 0 | 0 | 0 | 0 | 0 | 0 | 0 | 0 | 0 | 0 | 0 | 0 | > 10000 | > 10000 | > 10000 | > 10000 | > 10000 | > 10000 | > 10000 | > 10000 | > 10000 | > 10000 | > 10000 | > 10000 | > 10000 | > 10000 | > 10000
14 | CCNC(=O)CCC/C=C\C[C@@H]1[C@@H](/C=C/[C@@H](O)CCc2ccccc2)[C@H](O)C[C@@H]1O [Bimatoprost] | 0 | 0 | 0 | 0 | 0 | 0 | 0 | 0 | 0 | 0 | 0.0302 | 0 | 0 | 0 | 0 | > 5500 | > 5500 | > 5500 | > 5500 |  | > 5500 | > 5500 | > 5500 | > 5500 | > 5500 | > 5500 | > 5500 | > 5500 | > 5500 | > 5500
